Measurements: patent publication US4808607A, “Imidazole analogs of mevalonolactone and derivatives thereof for use in inhibiting cholesterol biosynthesis and lowering blood cholesterol level” (Sandoz Pharm. Corp., priority 1987, dated 1989)
Read-outs that look alike come from different tables or passages of the source.

What was measured:
HMG-CoA reductase = molecular target: T1, HMG-CoA reductase (Rattus norvegicus, UniProt P51639); assay: Test A. In Vitro Microsomal Assay of HMG-CoA Reductase Inhibition; type: biochemical, rat (male Sprague-Dawley)
T1 construct: In the assay the microsomes are the source of the HMG-CoA reductase enzyme; from tissue; host or cells: liver microsomes of male Sprague-Dawley rats
T1 sequence (P51639 1-887): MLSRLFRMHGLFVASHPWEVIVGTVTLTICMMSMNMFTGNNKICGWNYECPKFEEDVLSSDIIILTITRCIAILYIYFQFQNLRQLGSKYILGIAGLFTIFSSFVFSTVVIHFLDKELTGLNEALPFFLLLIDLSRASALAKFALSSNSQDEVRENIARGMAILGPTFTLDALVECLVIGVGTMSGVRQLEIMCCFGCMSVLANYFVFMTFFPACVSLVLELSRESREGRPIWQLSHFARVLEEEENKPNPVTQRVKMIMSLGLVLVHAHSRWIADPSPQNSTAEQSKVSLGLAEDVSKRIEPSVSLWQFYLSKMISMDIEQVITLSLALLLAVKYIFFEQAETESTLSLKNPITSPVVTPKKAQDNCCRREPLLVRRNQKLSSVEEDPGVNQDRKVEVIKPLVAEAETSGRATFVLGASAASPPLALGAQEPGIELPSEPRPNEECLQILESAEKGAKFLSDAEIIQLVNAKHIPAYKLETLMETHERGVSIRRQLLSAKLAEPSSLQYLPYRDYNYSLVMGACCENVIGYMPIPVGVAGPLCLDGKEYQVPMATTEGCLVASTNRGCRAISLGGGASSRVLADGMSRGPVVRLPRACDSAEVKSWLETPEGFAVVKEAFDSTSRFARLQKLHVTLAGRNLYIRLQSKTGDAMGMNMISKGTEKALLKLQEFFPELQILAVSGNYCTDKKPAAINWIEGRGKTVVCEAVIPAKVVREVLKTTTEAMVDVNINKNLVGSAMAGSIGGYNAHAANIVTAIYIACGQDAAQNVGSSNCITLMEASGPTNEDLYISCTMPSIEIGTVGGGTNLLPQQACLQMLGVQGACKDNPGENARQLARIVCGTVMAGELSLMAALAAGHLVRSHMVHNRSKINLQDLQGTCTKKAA
Description: The compounds of Formula I and the pharmaceutically acceptable acid addition salts thereof are competitive inhibitors of 3-hydroxy-3-methylglutaryl coenzyme A (HMG-CoA) reductase, the rate limiting enzyme in cholesterol biosynthesis, and, therefore, they are inhibitors of cholesterol biosynthesis.
Test A. In Vitro Microsomal Assay of HMG--CoA Reductase Inhibition:
200 μl. aliquots (1.08-1.50 mg./ml.) of rat liver microsomal suspensions, freshly prepared from male SpragueDawley rats (150-225 g. body weight), in Buffer A with 10 mmol. dithiothreitol are incubated with 10 μl. of a solution of the test substance in dimethylacetamide and assayed for HMG--CoA reductase activity as described in Ackerman et al., J. Lipid Res. 18, 408-413 (1977), the concentration of the test substance in the assay system being 0.0001-2,000 μmolar. In the assay the microsomes are the source of the HMG-CoA reductase enzyme which catalyzes the reduction of HMG-CoA to mevalonate. The assay employs a chloroform extraction to separate the product, [^14 C]mevalonolactone, formed by the HMG-CoA reductase reduction of the substrate, [^14 C]HMG-CoA. [^3 H]mevalonolactone is added as an internal reference. Inhibition of HMG-CoA reductase is calculated from the decrease in specific activity ([^14 C/^3 H]mevalonate) of test groups compared to controls.
The IC50 is the concentration of the test substance in the assay system calculated or observed to produce a 50% inhibition of HMG-CoA reductase activity.

[1] = tested on: 3β-hydroxysterol synthesis (cholesterol biosynthesis); assay: Test B. In Vivo Cholesterol Biosynthesis Inhibition Test; design: species or system rat (male Wistar Royal Hart); details: Rattus norvegicus, read-out: ED50 in Test B (dose producing 50% inhibition of 3β-hydroxysterol synthesis)
Description: Test B. In Vivo Cholesterol Biosynthesis Inhibition Test: In vivo studies utilize male Wistar Royal Hart rats weighing 150±20 g. which have been kept for 7-10 days on an altered light cycle (6:30 A.M. - 6:30 P.M. dark) housed two per cage and fed powdered Purina Rat Chow and water ad libitum. Three hours before the diurnal maximum of cholesterol synthesis at mid-dark, the rats are administered orally the test substance (e.g., 0.001-200 mg./kg. body weight) dissolved or as a suspension in 0.5% carboxymethylcellulose in a volume of 1 ml./100 g. body weight. Controls receive vehicle alone. One hour after receiving the test substance (or the vehicle alone), the rats are injected intraperitoneally with about 25 μCi/100 g. body weight of sodium [1-^14 C]acetate 1-3 mCi/mmol. Two hours after mid-dark, blood samples are obtained under sodium hexobarbitol anesthesia, and the serum is separated by centrifugation. […] The [^14 C]digitonides are then counted by liquid scintillation spectrometry. After correcting for efficiencies, the results are calculated in nCi (nanocuries) of 3β-hydroxysterol formed per 100 ml. of serum.

[2] = rat liver microsomes, [14C]HMG-CoA substrate, test substance in dimethylacetamide, read-out: IC50 in Test A (50% inhibition of HMG-CoA reductase activity)
[3] = oral, single dose, male rats, [1-14C]acetate i.p. 1 h after dose, serum 3β-hydroxysterols

Which results are given for `CC(C)c1nc(-c2ccccc2)n(-c2ccc(F)cc2)c1/C=C/[C@@H](O)C[C@@H](O)CC(=O)O` [Example 2A, Sodium (3R,5S)-(E)-3,5-dihydroxy-7-[1'-(4"-fluorophenyl)-4'-(1"-methylethyl)-2'-phenyl-1H-imidazol-5'-yl]hept-6-enoate]?
IC50 (HMG-CoA reductase; [2]): 2 nM; ED50 [1, 3]: 0.02 mg/kg

How did the IC50 (HMG-CoA reductase; [2]) turn out when `CC(C)c1nc(-c2ccccc2)n(-c2ccc(F)cc2)c1/C=C/[C@@H](O)C[C@@H](O)CC(=O)O` (relative stereo) [Example 2, Sodium (±)-erythro-(E)-3,5-dihydroxy-7-[1'-(4"-fluorophenyl)-4'-(1"-methylethyl)-2'-phenyl-1H-imidazol-5'-yl]hept-6-enoate] was run?
The IC50 was 2.6 nM.

What about the ED50 [1, 3] of the same compound?
Its ED50 is 0.025 mg/kg.

`CC(C)c1nc(-c2ccccc2)n(-c2ccccc2)c1/C=C/[C@@H](O)C[C@@H](O)CC(=O)O` (relative stereo) [Example 10] was tested. Which IC50 (HMG-CoA reductase; [2]) did it give?
Its IC50 is 36 nM.

And the ED50 [1, 3]?
The ED50 was 0.028 mg/kg.

`CC[C@H](C)C(=O)O[C@H]1CCC=C2C=C[C@H](C)[C@H](CC[C@@H]3C[C@@H](O)CC(=O)O3)[C@H]21` [Compactin, reference compound] was tested. Which IC50 (HMG-CoA reductase; [2]) did it give?
Its IC50 is 1010 nM.

And the ED50 [1, 3]?
Its ED50 is 3.5 mg/kg.

What does the source list for `CCC(C)C(=O)OC1CC(C)C=C2C=CC(C)C(CCC3CC(O)CC(=O)O3)C21` (stereo not shown) [Mevinolin, reference compound]?
IC50 (HMG-CoA reductase): 140 nM; ED50 ([1]; po, 1 h): 0.38 mg/kg
